Results as given in patent publication US20240208901A1, “Deuterated 3,3'-Diselenodipropionic Acid (DSePA) and Its Use as an Anticancer or Radioprotective Agent” (Secretary, Department of Atomic Energy, priority 2022, published 2024).

Experiments:
[1] = system: WI-38 cells; assay: Clonogenic assay, radioprotection of WI-38 cells against γ-irradiation; format: cell-based, human; settings: γ-irradiation 2-12 Gy
Experimental: Further, clonogenic assay is considered as the gold standard method for evaluating the anticancer activity of any compound and is also a good indicator of the in vivo efficacy of any anticancer compound. Therefore, the therapeutic index of DSePA and D-DSePA in A549/WI-38 cells was also validated by employing the clonogenic assay. For this, A549/WI-38 cells were treated with the varying concentrations (0.1-2 μM)/(1-500 μM) of DSePA/D-DSePA for seven days and the survival fraction was calculated by counting the number of surviving clones (FIG. 11A). The plot of survival fraction verses the concentration of DScPA/D-DSCPA was used to estimate the IC50 of above compounds to inhibit the growth of A549/WI-38 cells. […] This clearly confirmed that deuteration of DScPA reduced its toxicity in normal cells without compromising its efficacy in cancer cells. Since anticancer agents are intended to be used in combination with radiation, DSePA/D-DSePA at a treatment concentration of 0.5 μM (dose close to IC50 as determined by clonogenic assay) was combined with varying absorbed doses (2-8 Gy) of γ-irradiation and the effect of combinatorial treatment on the viability of A549 cells was determined by clonogenic assay (FIG. 12A & 12B). For this, A549 cells exposed to the varying absorbed doses (2-8 Gy) of γ-radiation were immediately treated with DScPA/D-DScPA and cultured for seven days prior to clonogenic assay. […] The D10 value of the combinatorial treatment involving DScPA estimated was 4.5 Gy (FIG. 12B). […]
(§1) Clonogenic assay—Clonogenic assay was performed according to the method reported previously. […] After 7 days, colonies were fixed with absolute methanol for 5 min, stained with 0.5% crystal violet for 5 min, washed with distilled water to remove excess stain and counted manually under a stereo microscope. […] The plating efficiency and the survival fraction under irradiated and drug treated conditions were calculated using following formulae: […]
(§2) The plating efficiency of A549 and WI38 cells was calculated by seeding ˜300 and ˜500 cells respectively. […]

[2] = system: non-cancerous human lung fibroblast cells (WI-38 & WI-26 VA4); assay: MTT assay, non-cancerous human lung fibroblast cells (summary statement); format: cell-based; settings: WI-38 & WI-26 VA4 cells
Source text: 3,3′-Disclenodipropionic acid-D8 (D-DSePA, chemical structure shown in FIG. 1) was synthesized by reacting freshly prepared sodium selenide (Na2Se2) and 3-bromopropionic acid-D4 in D2O solvent with 42% yield. The synthesized D-DSePA was purified and characterized by NMR spectroscopy and mass spectrometry. The molecular structure of D-DSePA has been established by single-crystal X-ray diffraction analysis. The treatment of D-DSePA and un-deuterated DSePA inhibited the growth of human NSCLC cells such as A549, H1975 and H3122 with half maximum concentration (IC50) in the range of 5-50 μM by MTT assay. […] Finally, at identical treatment concentration, D-DSePA offered better radioprotection to non-cancerous WI38 cells with a dose modification factor (DMF) of 1.16±0.05 as compared to un-deuterated DScPA with DMF of 1.12±0.03.
MTT Assay—To evaluate the anti-proliferative effect of D-DScPA and DScPA, Cells (˜5×10^3) suspended in 100 μl of complete culture medium were seeded in each well of 96 well plates. […] The percentage (%) cytotoxicity was calculated from the decrease in absorbance at 570 nm of treated groups as compared to that of control group. […] The therapeutic index was calculated by normalizing the IC50 concentration of D-DSePA/DSePA in non-cancerous cells to that in cancerous cells.

[3] = system: lung cancer cell lines (A549, H1975 and H3122) versus normal lung cells (WI-38 and WI-26 VA4); assay: Therapeutic index by MTT assay, lung cancer cell lines versus normal lung cells; format: cell-based, human; settings: for Therapeutic Index (IC50 in normal cell / IC50 in cancer cells): 48 h post-treatment
Experimental: Therefore, D-DSePA was compared with un-deuterated DSePA for its anticancer activity in A549, H1975 and H3122 cell lines which are representative of NSCLC. For this, above cells were treated with the varying concentrations (0.1-100 μM) of DSePA/D-DSePA for 48 h and the cell viability was determined by MTT assay (FIG. 9A-C). The plot of percent (%) cytotoxicity (100-% viability) versus the concentration of DSePA/D-DSePA was used to estimate the half maximum concentration (IC50) of above compounds to inhibit the proliferation of cells. […] Similarly, the toxicity of DSePA/D-DSePA was studied in non-cancerous lung fibroblast cells, WI-38 and WI-26 VA4 in the concentration range of 0.1 to 1000 μM at 48 h post treatment by MTT assay (FIG. 9D and 9E). […] Employing these values, the therapeutic index (IC50 in normal lung cell/IC50 in lung cancer cell) of DSePA and D-DSePA in different pairs of normal versus cancerous cells (viz., A549/WI-38, A549/WI-26 VA4, H1975/WI-38, H1975/WI-26 VA4, H3122/WI-38 and H3122/WI-26 VA4) was calculated (Table-3). […] The average therapeutic index of DSePA and D-DSePA estimated from above study was 11.05±1.5 and 78.7±29.2 respectively (FIG. 10).
MTT Assay—To evaluate the anti-proliferative effect of D-DScPA and DScPA, Cells (˜5×10^3) suspended in 100 μl of complete culture medium were seeded in each well of 96 well plates. The cells were allowed to attach and grow for 24 h, treated with desired concentrations of D-DSePA/DScPA dissolved in culture medium for 48 h and then processed for MTT assay as described in literature. The percentage (%) cytotoxicity was calculated from the decrease in absorbance at 570 nm of treated groups as compared to that of control group. The % cytotoxicity was plotted as a function of the concentration of D-DSePA and DSePA and from this curve, the concentration of D-DSePA/DScPA causing 50% toxicity (IC50) was estimated. The therapeutic index was calculated by normalizing the IC50 concentration of D-DSePA/DSePA in non-cancerous cells to that in cancerous cells.

[4] = system: A549 cells; assay: Clonogenic assay, combinatorial treatment with γ-irradiation in A549 cells; format: cell-based, human
Experimental: Further, clonogenic assay is considered as the gold standard method for evaluating the anticancer activity of any compound and is also a good indicator of the in vivo efficacy of any anticancer compound. Therefore, the therapeutic index of DSePA and D-DSePA in A549/WI-38 cells was also validated by employing the clonogenic assay. For this, A549/WI-38 cells were treated with the varying concentrations (0.1-2 μM)/(1-500 μM) of DSePA/D-DSePA for seven days and the survival fraction was calculated by counting the number of surviving clones (FIG. 11A). The plot of survival fraction verses the concentration of DScPA/D-DSCPA was used to estimate the IC50 of above compounds to inhibit the growth of A549/WI-38 cells. […] This clearly confirmed that deuteration of DScPA reduced its toxicity in normal cells without compromising its efficacy in cancer cells. Since anticancer agents are intended to be used in combination with radiation, DSePA/D-DSePA at a treatment concentration of 0.5 μM (dose close to IC50 as determined by clonogenic assay) was combined with varying absorbed doses (2-8 Gy) of γ-irradiation and the effect of combinatorial treatment on the viability of A549 cells was determined by clonogenic assay (FIG. 12A & 12B). For this, A549 cells exposed to the varying absorbed doses (2-8 Gy) of γ-radiation were immediately treated with DScPA/D-DScPA and cultured for seven days prior to clonogenic assay. […] The D10 value of the combinatorial treatment involving DScPA estimated was 4.5 Gy (FIG. 12B). Similarly, D10 value of the combinatorial treatment involving D-DSePA estimated was 4 Gy. From these values, the dose modification factor (DMF or the ratio of the D10 of combinatorial treatment to that of D10 of radiation) of DScPA and D-DScPA estimated was 0.87±0.01 and 0.83±0.02 respectively. […] While the objective of radiotherapy is to achieve tumor control, it is also known to cause normal tissue toxicity. Previously, DSePA has been reported to protect normal cells from lethal effects of γ-radiation. Thus radio-protective activity of D-DSePA was compared with DScPA in terms of their abilities to protect non-cancerous lung fibroblast (WI-38) cells against γ-irradiation induced cell death. For this, WI-38 cells were pretreated with DSePA/D-DScPA for 24 h at an identical concentration of 0.5 μM (close to IC50 required to inhibit growth of A549 lung cancer cells by clonogenic assay) and then exposed to varying doses (2-12 Gy) of γ-irradiation. The survival of cells against radiation exposure was estimated by clonogenic assay and the dose response curve was prepared in the presence and absence of drug (DSePA/D-DScPA) (FIG. 12C & 12D). By using this dose response curve, the dose modification factor (DMF or the ratio of the D10 of radiation plus drug and D10 of radiation alone) of DSePA and D-DSePA estimated was 1.12±0.03 and 1.16±0.05 respectively.
as §1, §2

## [2H]C([2H])([Se][Se]C([2H])([2H])C([2H])([2H])C(=O)O)C([2H])([2H])C(=O)O [D-DSePA, 3,3′-diselenodipropionic acid-D8]
[1]; WI-38 cells pretreated 24 h with 0.5 μM drug, clonogenic assay
  dose modification factor (DMF, D10 of radiation plus drug / D10 of radiation alone): 1.16±0.05
[1]; WI-38 cells, 0.5 μM 24 h pre-treatment
  radioprotective activity in normal lung cells: exhibited radioprotective activity in normal lung cells
[2]
  IC50 higher as compared to un-deuterated DSePA: 4 to 5 times
[3]; A549/WI-26 VA4, MTT assay
  Therapeutic Index (IC50 in normal cell / IC50 in cancer cells): 36.2 ± 1.9
[3]; A549/WI-38, MTT assay
  Therapeutic Index (IC50 in normal cell / IC50 in cancer cells): 65.7 ± 3.3
[3]; H1975/WI-26 VA4, MTT assay
  Therapeutic Index (IC50 in normal cell / IC50 in cancer cells): 119.6 ± 5.9
[3]; H1975/WI-38, MTT assay
  Therapeutic Index (IC50 in normal cell / IC50 in cancer cells): 217.4 ± 10.9
[3]; H3122/WI-26 VA4, MTT assay
  Therapeutic Index (IC50 in normal cell / IC50 in cancer cells): 11.8 ± 0.6
[3]; H3122/WI-38, MTT assay
  Therapeutic Index (IC50 in normal cell / IC50 in cancer cells): 21.5 ± 1.0
[3]; mean of six normal/cancer cell pairs, mean±SEM (n=6), MTT assay
  average therapeutic index: 78.7±29.2
[3]; non-cancerous lung fibroblast versus NSCLC (A549, H1975 and H3122)
  higher therapeutic index as compared to un-deuterated DSePA: ~7 folds
[4]; 0.5 μM drug immediately after γ-radiation (2-8 Gy)
  dose modification factor (DMF, D10 of combinatorial treatment / D10 of radiation): 0.83±0.02
[4]; 0.5 μM with γ-radiation 2-8 Gy
  effect on radiation kill of lung cancer cells: did not protect lung cancer cells from radiation kill
[4]; γ-radiation 2-8 Gy then 0.5 μM drug immediately, seven days, radiation alone D10 5 Gy
  D10 value (decimal reduction dose) of the combinatorial treatment: 4 Gy
